{"source": "patent US9198859B2", "about": "“Concentrated mast cell stabilizing pharmaceutical formulations” (PARI Pharma GMBH, priority 2009, dated 2015)", "origin": "cited, not measured here", "key": {"[1]": {"settings": "6 months; nebulized 3 times daily IsoCrom (20 mg/2 ml) via eFlow; children"}, "[2]": {"test_system": "respiratory syncytial virus", "settings": "mice"}, "influenza virus": {"test_system": "influenza virus", "settings": "mice"}}, "data": [{"smiles": "O=C(O)c1cc(=O)c2c(OCC(O)COc3cccc4oc(C(=O)O)cc(=O)c34)cccc2o1", "note": "[DSCG, disodium cromoglycate]", "values": [{"measurement": "therapeutic efficacy versus inhaled steroids", "setting": "[1]", "value": "as effective as inhaled steroids"}, {"measurement": "protection against RSV induced illness", "setting": "[2]", "value": "protected against respiratory syncytial virus induced illness"}, {"measurement": "protection from death induced by influenza virus infection", "setting": "influenza virus", "value": "protected mice from death"}]}]}
